Test results: patent US20240392302A1, “METHOD FOR DETECTING AND QUANTIFYING RNA” (FLUORESCENCE DIAGNOSIS (SHANGHAI) BIOTECH COMPANY LTD., priority 2021, published 2024)

Columns and labels:
[1] = test system: F30-N16-1 RNA aptamer molecules; experiment: Binding of F30-N16-1 RNA aptamer molecules with different fluorescent molecules (fluorescence spectrum, activation multiple); type: biochemical; details: for Maximum emission peak (nm) / Maximum excitation peak (nm): complex with F30-N16-1; for Activation Multiple: fluorophore with F30-N16-1
Procedure: (§1) Nucleic acid aptamer molecules of N16 or N16 mutants were prepared by using the commonly-used experimental method (I), 2.5 μM of nucleic acid aptamer molecules and 0.5 μM of fluorophore molecules were incubated in a detection buffer (40 mM of HEPES, pH 7.4, 125 mM of KCl, 5 mM of MgCl2, 5% DMSO), and the maximum excitation peak and the maximum emission peak of the fluorescence of the nucleic acid aptamer-fluorophore molecular complex were detected with Synergy Neo2 multifunctional enzyme-labeler. Synergy Neo2 multifunctional enzyme-labeler was used again to detect fluorescence intensity of the nucleic acid aptamer-fluorophore molecular complex under its maximum excitation and emission conditions, the control sample ([…] of fluorophore molecules without nucleic acid aptamer) was also measured under the same conditions, and the ratio of fluorescence intensity was calculated. For example, as for fluorescence of the complex formed by 2.5 μM of N16-1 nucleic acid aptamer and 0.5 μM of I-5-14 fluorophore molecules, the maximum excitation peak is 512 nm and the maximum emission peak is 574 nm. It was detected by the Synergy Neo2 multifunctional enzyme-labeler that the fluorescence intensity of the complex at an excitation condition of 512±10 nm and an emission condition of 574 nm±10 nm was 49,088, while the fluorescence intensity of the control (0.5 μM of I-5-14 fluorophore molecules) under the same detection conditions was 399, so the activation multiple of N16-1 nucleic acid aptamer to I-5-14 fluorophore molecules was 123.
F30-N16-1 RNA aptamer molecules were prepared by using the commonly-used experimental method (I), and were used for detecting basic properties, including fluorescence spectrum and fluorescence activation multiple, of the binding of I-5-14 analogues with N16.

[2] = Binding constant of N16-1 and I-5-14; details: 10 nM N16-1 with I-5-14 of different concentrations
Procedure: In order to detect the binding constant of N16-1 and I-5-14, 10 nM of N16-1 was incubated with I-5-14 of different concentrations, so that fluorescence values thereof could be detected. According to the results, the binding constant of N16-1 and I-5-14 was 15.69 nM (FIG. 3D).

[3] = Function detection of the nucleic acid aptamer: fluorescence activation of I-5-14 by N16-1, its mutants and base-modified forms; type: biochemical; details: for Activation Multiple: 0.5 μM I-5-14 with 2.5 μM RNA; for fluorescence activation effect of base-modified N16-1 for I-5-14: base-modified aptamers
Procedure: A primer containing T7 promoter was used for amplification of corresponding cDNA of RNA to be detected, and T7 RNA polymerase (purchased from Fermentas) was used for obtaining RNA by means of transcription with recovered double-stranded cDNA as a template. 10 μL of 3 M NaAc and 115 μL of DEPC water were added into 20 μL of transcription system, and were mixed well before 150 μL of phenol chloroform-[…] mixture (phenol:chloroform:[…]=25:24:1) was added; then the mixture was mixed well by means of oscillation, and the supernatant was taken after centrifugation at 10,000 rpm for 5 min. An equal volume of chloroform solution was added and was mix well by means of oscillation, and then the supernatant was taken after centrifugation at 10,000 rpm for 5 min; the process was repeated once. 2.5 times the volume of anhydrous ethanol was added into the supernatant, and the mixture was placed in a refrigerator at −20° C. for 30 min and was subject to centrifugation at 12,000 rpm at 4° C. for 5 min; then the supernatant was removed, and the precipitation was cleaned twice with 75% pre-cooled anhydrous ethanol. After volatilization of the ethanol, the precipitation was re-suspended with an appropriate amount of screening buffer, and then was treated at 75° C. for 5 min and was placed at room temperature for more than 10 min for subsequent experiments.
as §1
According to the results, most N16-1 mutants with a single base mutation retained a relatively strong fluorescence activation effect (no smaller than 2 times) on I-5-14 (Table 2). Some N16-1 mutants with 2 to 5 base mutations still retained a relatively strong fluorescence activation effect (greater than 20 times) for I-5-14 (Table 3). In a word, many single-base and multi-base mutants of N16-1 might still retain the aptamer function of activating the 1-5-14 fluorophore molecules.

[4] = complex of 2.5 μM N16-1 and 0.5 μM I-5-14

| Molecule | Maximum emission peak (nm) [1] | Maximum excitation peak (nm) [1] | Activation Multiple [1] | further results |
| --- | --- | --- | --- | --- |
| CN(CCO)c1cc2sc(/C=C3\OC(=O)NC3=O)cc2s1 [I-5-55] | 627 nm | 513 nm | 14 | – |
| CN(CCO)c1cc2sc(/C=C3\SC(=O)NC3=S)cc2s1 [I-5-56] | 627 nm | 568 nm | 12 | – |
| CN(CCO)c1cc2sc(/C=C3\SC(=S)NC3=O)cc2s1 [I-5-57] | 647 nm | 579 nm | 1279 | – |
| CN(CCO)c1cc2sc(/C=C3\SC(=S)NC3=S)cc2s1 [I-5-58] | 725 nm | 692 nm | 1422 | – |
| CN1C(=O)/C(=C/c2cc3sc(N(CCO)CCO)cc3s2)SC1=S [I-5-59] | 655 nm | 581 nm | 12 | – |
| CN1C(=O)/C(=C/c2cc3sc(N(CCO)CCO)cc3s2)NC1=S [I-5-60] | 626 nm | 552 nm | 8 | – |
| CN(CCO)c1ccc(-c2ccc(/C=C3\SC(=S)NC3=O)s2)cc1 [I-5-61] | 677 nm | 483 nm | 6 | – |
| CN(CCO)c1ccc(-c2ccc(/C=C3\SC(=O)NC3=O)s2)s1 [I-5-62] | 689 nm | 529 nm | 256 | – |
| CN1C(=O)/C(=C/c2ccc(-c3ccc(N(C)CCO)s3)cc2)NC1=S [I-5-63] | 673 nm | 521 nm | 6 | – |
| CN(CCO)c1ccc2cc(/C=C3\SC(=S)NC3=O)sc2c1 [I-5-64] | 665 nm | 522 nm | 12 | – |
| CN(CCO)c1ccc2cc(/C=C3\SC(=O)NC3=O)sc2c1 [I-5-65] | 605 nm | 462 nm | 35 | – |
| CN(CCO)c1ccc2cc(/C=C3\SC(=S)NC3=S)sc2c1 [I-5-66] | 748 nm | 666 nm | 81 | – |
| CN(C)c1ccc2cc(/C=C3\NC(=S)NC3=O)sc2c1 [I-5-67] | 652 nm | 516 nm | 7 | – |
| CN1C(=O)/C(=C/c2cc3ccc(N(CCO)CCO)cc3s2)SC1=S [I-5-68] | 663 nm | 536 nm | 9 | – |
| CN(CCO)c1ccc2nc(/C=C3\NC(=S)NC3=O)sc2c1 [I-5-69] | 661 nm | 531 nm | 11 | – |
| CN(CCO)c1ccc2nc(/C=C3\SC(=S)N(CCC(=O)O)C3=O)sc2c1 [I-5-70] | 686 nm | 556 nm | 12 | – |
| CN1C(=O)S/C(=C\c2nc3ccc(N(C)CCO)cc3s2)C1=O [I-5-71] | 627 nm | 471 nm | 6 | – |

| Molecule | Maximum emission peak (nm) [1] | Maximum excitation peak (nm) [1] | Activation Multiple [1] | further results |
| --- | --- | --- | --- | --- |
| Nc1ccc2nc(/C=C3\SC(=S)NC3=S)sc2c1 [I-5-72] | 721 nm | 636 nm | 14 | – |
| CC1(C)c2cc(/C=C3\SC(=S)NC3=O)ccc2-c2ccc(N(CCO)CCO)cc21 [I-5-73] | 731 nm | 681 nm | 12 | – |
| CN(C)c1ccc2c(c1)C(C)(C)c1cc(/C=C3\SC(=O)NC3=O)ccc1-2 [I-5-74] | 691 nm | 635 nm | 14 | – |
| CN(CCO)c1ccc2c(c1)C(C)(C)c1cc(/C=C3\SC(=S)NC3=S)ccc1-2 [I-5-75] | 791 nm | 741 nm | 7 | – |
| CN(CCO)c1ccc2c(c1)C(C)(C)c1cc(/C=C3\NC(=S)NC3=O)ccc1-2 [I-5-76] | 774 nm | 724 nm | 9 | – |
| CN(CCO)c1ccc2c(c1)C(C)(C)c1cc(/C=C3\NC(=S)NC3=O)sc1-2 [I-5-77] | 783 nm | 736 nm | 5 | – |
| CN(CCO)c1ccc2c(c1)C(C)(C)c1cc(/C=C3\SC(=S)NC3=S)sc1-2 [I-5-78] | 681 nm | 582 nm | 8 | – |
| CN(CCO)c1ccc2c(c1)C(C)(C)c1cc(/C=C3\SC(=S)NC3=O)sc1-2 [I-5-79] | 733 nm | 682 nm | 11 | – |
| CN1C(=O)/C(=C/c2cc3c(s2)-c2ccc(N(CCO)CCO)cc2C3(C)C)SC1=S [I-5-80] | 743 nm | 686 nm | 7 | – |
| CN(CCO)c1cc2c(s1)-c1sc(/C=C3\NC(=S)N(N)C3=O)cc1C2(C)C [I-5-81] | 713 nm | 635 nm | 7 | – |
| CN(CCO)c1cc2c(s1)-c1sc(/C=C3\SC(=S)NC3=S)cc1C2(C)C [I-5-82] | 801 nm | 748 nm | 3 | – |
| CN(CCO)c1cc2c(s1)-c1sc(/C=C3\SC(=S)NC3=O)cc1C2(C)C [I-5-83] | 733 nm | 685 nm | 4 | – |
| CN1C(=O)/C(=C/c2cc3c(s2)-c2sc(N(CCO)CCO)cc2C3(C)C)SC1=S [I-5-84] | 737 nm | 685 nm | 6 | – |
| N16-1: nucleic acid aptamer with a sequence SEQ ID NO: 1 (GGGCNCCAGGNGCNGCNNCGGCAGGNAACGGACNNAGANCCACNGNACGCCC; RNA, backbone and the base at N not given here) | – | – | – | Kd [2]: 15.7 nM; fluorescence intensity of the complex ([3]; 2.5 μM N16-1, 0.5 μM I-5-14, excitation 512±10 nm, emission 574 nm±10 nm): 49,088; activation multiple of N16-1 nucleic acid aptamer to I-5-14 fluorophore molecules ([3]; 2.5 μM N16-1, 0.5 μM I-5-14, excitation 512±10 nm, emission 574±10 nm): 123; Activation Multiple ([3]; N16-1 mutants containing a single base mutation): 123; Activation Multiple ([3]; N16-1 mutants containing multi-base mutation): 123; maximum emission peak [3, 4]: 574 nm; maximum excitation peak [3, 4]: 512 nm |
| N16-2: base-modified N16-1, SEQ ID NO: 4, stem-loop structure bases replaced with deoxyribonucleotides (GGGCNCCAGGNGCNGCNNCGGCAGGNAACGGACNNAGANCCACNGNACGCCC; some stem-loop nucleotides deoxyribonucleotides, positions not given here) | – | – | – | fluorescence activation effect of base-modified N16-1 for I-5-14 [3]: significantly activate |
| N16-3: base-modified N16-1, SEQ ID NO: 5, some of the bases modified by 2′-F (GGGCNCCAGGNGCNGCNNCGGCAGGNAACGGACNNAGANCCACNGNACGCCC; some nucleotides 2'-fluoro modified, positions not given here) | – | – | – | fluorescence activation effect of base-modified N16-1 for I-5-14 [3]: significantly activate |
